Literature values, collected in paper PMC8704606, “The Artemiside-Artemisox-Artemisone-M1 Tetrad: Efficacies against Blood Stage P. falciparum Parasites, DMPK Properties, and the Case for Artemiside” (Pharmaceutics, 2021).

How the values were obtained:
[1] = system: TM91-C235 (CQ and MFQ resistant); design: method as in ref S2; conditions: [3H]-hypoxanthine assay; ref S2; read-out: Antimalarial activities IC50 TM91-C235; cited from earlier work
[2] = system: TM93-C1088 (atovaquone and CQ resistant); design: method as in ref S2; conditions: [3H]-hypoxanthine assay; ref S2; read-out: Antimalarial activities IC50 TM93-C1088; cited from earlier work
[3] = system: CQ-sensitive P. berghei N strain; conditions: Peters four-day test, mice, ref S4 (24), cited from earlier work
TM-C2B = system: TM-C2B; design: method as in ref S2; conditions: [3H]-hypoxanthine assay; ref S2; read-out: Antimalarial activities IC50 TM-C2B; cited from earlier work
W2 (CQ resistant) = system: W2 (CQ resistant); design: method as in ref S2; conditions: [3H]-hypoxanthine assay; ref S2; read-out: Antimalarial activities IC50 W2; cited from earlier work
[4] = system: late-stage (LG) Pf NF54 gametocytes; design: method as in PMID 29866868; conditions: late-stage gametocytes >90% stages IV-V; 48 h incubation; ± SEM; cited from earlier work
[5] = system: asexual blood stages of Pf NF54 (drug sensitive); design: method as in PMID 29866868, PMID 31998692; conditions: asexual blood stage Pf NF54, CQ sensitive; SYBR Green I; ± SEM; cited from earlier work
[6] = system: asexual blood stages of Pf K1 (drug resistant); design: method as in PMID 29866868, PMID 31998692; conditions: asexual blood stage Pf K1, multidrug resistant; SYBR Green I; ± SEM; cited from earlier work
[7] = system: fetal rat brain stem cells; conditions: cited from earlier work
7G8 (CQ resistant) = system: 7G8 (CQ resistant); design: method as in ref S2; conditions: [3H]-hypoxanthine assay; ref S2; read-out: Antimalarial activities IC50 7G8; cited from earlier work
[8] = single dose 10 mg/kg, healthy Aotus monkeys; cited from earlier work
[9] = system: asexual blood stages of Pf W2 (drug resistant); design: method as in PMID 29866868, PMID 31998692; conditions: asexual blood stage Pf W2, multidrug resistant; SYBR Green I; ± SEM; cited from earlier work
[10] = system: early-stage (EG) Pf NF54 gametocytes; design: method as in PMID 29866868; conditions: early-stage gametocytes >95% stages II-III; 48 h incubation; ± SEM; cited from earlier work
Toxoplasma gondii (Tg) = system: Toxoplasma gondii (Tg); design: method as in PMID 19635951; conditions: read-out: EC50 against Tg in vitro; cited from earlier work
[11] = system: CQ-resistant P. yoelii NS strain; conditions: Peters four-day test, mice, subcutaneous; ref S4 (24); cited from earlier work

C[C@H]1[C@H](OC(=O)CCC(=O)O)O[C@@H]2O[C@@]3(C)CC[C@H]4[C@H](C)CC[C@@H]1[C@@]24OO3 [Artesunate 4, Artesunate]
IC50 [1]: 2.9 ± 1.4 nM
IC50 [2]: 1.4 ± 0.1 nM
P. berghei ED90 po ([3]; oral daily day 0-3): 7.1 mg/kg
P. berghei ED90 sc ([3]; subcutaneous daily day 0-3): 7.2 mg/kg
IC50 (TM-C2B): 2.5 ± 0.5 nM
IC50 (W2 (CQ resistant)): 3 ± 1.6 nM
IC50 [4]: 259 ± 80 nM
IC50 [5]: 3 ± 0.29 nM
IC50 [6]: 4 ± 1 nM
Viability NOEC [7]: 0.1 µg/mL
Neurofilaments IC50 ([7]; effect on the cytoskeleton on day 7, ref S4 (24)): 5.0 mg/L
IC50 (7G8 (CQ resistant)): 1.5 ± 0.2 nM
ex vivo antimalarial activity observable up to (post dose) [8]: up to 1 h
IC50 [9]: 2.4 ± 0.4 nM
IC50 [10]: 62.8 ± 3 nM
EC50 (Toxoplasma gondii (Tg)): 213 nM
P. yoelii ED90 sc [11]: 22.0 mg/kg
